Reference: the supplement of paper PMC13207355

Assays:
Details in all cases: exposure time: 72 h
E21 [1] = patient-derived glioblastoma stem cells of mesenchymal subtype; test: phenotypic distance (Euclidean, principal components) from DMSO controls (arbitrary units); higher = stronger morphological change
E34 [2] = patient-derived glioblastoma stem cells of proneural subtype; test: as above
E13 [3] = patient-derived glioblastoma stem cells of classical subtype; test: as above
E31 [4] = patient-derived glioblastoma stem cells of proneural subtype; test: as above
E57 [5] = patient-derived glioblastoma stem cells of mesenchymal subtype; test: as above
FT3469 [6] = normal neural stem cell line; test: as above
E28 [7] = patient-derived glioblastoma stem cells of classical subtype; test: as above
E21 [8] = test: surviving fraction (nuclei count normalised to DMSO); higher = more cells surviving (less toxic)
E34 [9] = test: as above
E13 [10] = test: as above
E31 [11] = test: as above
E57 [12] = test: as above
FT3469 [13] = test: as above
E28 [14] = test: as above
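Throughout, for phenotypic distance (Euclidean, principal components) from DMSO controls: cell Painting imaging in 384-well plates, CellProfiler features reduced to at least 20 principal components, Euclidean distance versus same-plate DMSO vehicle wells (0.1% v/v), median over six images per well.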
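Throughout, for surviving fraction (nuclei count normalised to DMSO): nuclei counted by high-content imaging of Hoechst-stained cells in laminin-coated 384-well plates, relative to 0.1% DMSO vehicle wells, with staurosporine as cell-death control.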

CCOC(=O)C1=C(C)NC(C)=C(C(=O)OCC)C1c1c(F)c(F)c(F)c(F)c1F [Nemadipine-A]
Details | phenotypic distance | surviving fraction
E13 [3], 4.1 nM | 0.957 | –
E13 [3], 12.3 nM | 0.892 | –
E13 [3], 37 nM | 0.571 | –
E13 [3], 111.1 nM | 0.762 | –
E13 [3], 333.3 nM | 0.542 | –
E13 [3], 1000 nM | 0.692 | –
E13 [3], 3000 nM | 0.903 | –
E13 [10], 4.1 nM | – | 0.797
E13 [10], 12.3 nM | – | 0.944
E13 [10], 37 nM | – | 0.915
E13 [10], 111.1 nM | – | 0.841
E13 [10], 333.3 nM | – | 0.948
E13 [10], 1000 nM | – | 1.09
E13 [10], 3000 nM | – | 0.764
E21 [1], 4.1 nM | 0.903 | –
E21 [1], 12.3 nM | 0.665 | –
E21 [1], 37 nM | 0.548 | –
E21 [1], 111.1 nM | 0.745 | –
E21 [1], 333.3 nM | 0.572 | –
E21 [1], 1000 nM | 0.681 | –
E21 [1], 3000 nM | 1.4 | –
E21 [8], 4.1 nM | – | 0.897
E21 [8], 12.3 nM | – | 0.936
E21 [8], 37 nM | – | 0.991
E21 [8], 111.1 nM | – | 0.971
E21 [8], 333.3 nM | – | 0.924
E21 [8], 1000 nM | – | 0.931
E21 [8], 3000 nM | – | 0.838
E28 [7], 4.1 nM | 0.43 | –
E28 [7], 12.3 nM | 0.613 | –
E28 [7], 37 nM | 0.807 | –
E28 [7], 111.1 nM | 0.686 | –
E28 [7], 333.3 nM | 0.703 | –
E28 [7], 1000 nM | 0.642 | –
E28 [7], 3000 nM | 1.14 | –
E28 [14], 4.1 nM | – | 0.9
E28 [14], 12.3 nM | – | 1.03
E28 [14], 37 nM | – | 0.81
E28 [14], 111.1 nM | – | 0.996
E28 [14], 333.3 nM | – | 0.945
E28 [14], 1000 nM | – | 0.934
E28 [14], 3000 nM | – | 0.704
E31 [4], 4.1 nM | 0.932 | –
E31 [4], 12.3 nM | 0.387 | –
E31 [4], 37 nM | 0.906 | –
E31 [4], 111.1 nM | 0.74 | –
E31 [4], 333.3 nM | 1.01 | –
E31 [4], 1000 nM | 0.415 | –
E31 [4], 3000 nM | 0.913 | –
E31 [11], 4.1 nM | – | 1.15
E31 [11], 12.3 nM | – | 1.05
E31 [11], 37 nM | – | 1.01
E31 [11], 111.1 nM | – | 1.26
E31 [11], 333.3 nM | – | 1.3
E31 [11], 1000 nM | – | 1.15
E31 [11], 3000 nM | – | 1.13
E34 [2], 4.1 nM | 0.666 | –
E34 [2], 12.3 nM | 0.857 | –
E34 [2], 37 nM | 0.641 | –
E34 [2], 111.1 nM | 0.619 | –
E34 [2], 333.3 nM | 0.843 | –
E34 [2], 1000 nM | 0.698 | –
E34 [2], 3000 nM | 0.734 | –
E34 [9], 4.1 nM | – | 1.01
E34 [9], 12.3 nM | – | 0.767
E34 [9], 37 nM | – | 1.14
E34 [9], 111.1 nM | – | 1.16
E34 [9], 333.3 nM | – | 1.13
E34 [9], 1000 nM | – | 0.926
E34 [9], 3000 nM | – | 0.909
E57 [5], 4.1 nM | 0.523 | –
E57 [5], 12.3 nM | 0.695 | –
E57 [5], 37 nM | 0.79 | –
E57 [5], 111.1 nM | 0.477 | –
E57 [5], 333.3 nM | 1.46 | –
E57 [5], 1000 nM | 0.54 | –
E57 [5], 3000 nM | 1.46 | –
E57 [12], 4.1 nM | – | 0.945
E57 [12], 12.3 nM | – | 1.07
E57 [12], 37 nM | – | 1.04
E57 [12], 111.1 nM | – | 0.954
E57 [12], 333.3 nM | – | 1.03
E57 [12], 1000 nM | – | 0.984
E57 [12], 3000 nM | – | 0.77
FT3469 [6], 4.1 nM | 0.624 | –
FT3469 [6], 12.3 nM | 0.608 | –
FT3469 [6], 37 nM | 0.488 | –
FT3469 [6], 111.1 nM | 0.574 | –
FT3469 [6], 333.3 nM | 0.712 | –
FT3469 [6], 1000 nM | 0.892 | –
FT3469 [6], 3000 nM | 1.01 | –
FT3469 [13], 4.1 nM | – | 1.03
FT3469 [13], 12.3 nM | – | 0.928
FT3469 [13], 37 nM | – | 1.17
FT3469 [13], 111.1 nM | – | 1.02
FT3469 [13], 333.3 nM | – | 0.866
FT3469 [13], 1000 nM | – | 1.1
FT3469 [13], 3000 nM | – | 0.804

O=C(Nc1ccc([N+](=O)[O-])cc1Cl)c1cc(Cl)ccc1O [Niclosamide]
Details | phenotypic distance | surviving fraction
E13 [3], 4.1 nM | 4.25 | –
E13 [3], 12.3 nM | 4.77 | –
E13 [3], 37 nM | 6.86 | –
E13 [3], 111.1 nM | 9.47 | –
E13 [3], 333.3 nM | 8.21 | –
E13 [3], 1000 nM | 8.6 | –
E13 [3], 3000 nM | 8.06 | –
E13 [10], 4.1 nM | – | 0.397
E13 [10], 12.3 nM | – | 0.192
E13 [10], 37 nM | – | 0.156
E13 [10], 111.1 nM | – | 0.163
E13 [10], 333.3 nM | – | 0.148
E13 [10], 1000 nM | – | 0.132
E13 [10], 3000 nM | – | 0.117
E21 [1], 4.1 nM | 4.72 | –
E21 [1], 12.3 nM | 6.44 | –
E21 [1], 37 nM | 6.49 | –
E21 [1], 111.1 nM | 11.8 | –
E21 [1], 333.3 nM | 11.9 | –
E21 [1], 1000 nM | 12.4 | –
E21 [1], 3000 nM | 14 | –
E21 [8], 4.1 nM | – | 0.602
E21 [8], 12.3 nM | – | 0.363
E21 [8], 37 nM | – | 0.0551
E21 [8], 111.1 nM | – | 0.0103
E21 [8], 333.3 nM | – | 0.0028
E21 [8], 1000 nM | – | 0.00933
E21 [8], 3000 nM | – | 0.00467
E28 [7], 4.1 nM | 1.99 | –
E28 [7], 12.3 nM | 2.43 | –
E28 [7], 37 nM | 6.04 | –
E28 [7], 111.1 nM | 8.95 | –
E28 [7], 333.3 nM | 7.22 | –
E28 [7], 1000 nM | 8.51 | –
E28 [7], 3000 nM | 7.9 | –
E28 [14], 4.1 nM | – | 0.616
E28 [14], 12.3 nM | – | 0.446
E28 [14], 37 nM | – | 0.147
E28 [14], 111.1 nM | – | 0.0916
E28 [14], 333.3 nM | – | 0.0952
E28 [14], 1000 nM | – | 0.0557
E28 [14], 3000 nM | – | 0.0898
E31 [4], 4.1 nM | 3.09 | –
E31 [4], 12.3 nM | 4.78 | –
E31 [4], 37 nM | 5.57 | –
E31 [4], 111.1 nM | 10.1 | –
E31 [4], 333.3 nM | 8.82 | –
E31 [4], 1000 nM | 9.48 | –
E31 [4], 3000 nM | 7.83 | –
E31 [11], 4.1 nM | – | 0.927
E31 [11], 12.3 nM | – | 0.495
E31 [11], 37 nM | – | 0.132
E31 [11], 111.1 nM | – | 0.072
E31 [11], 333.3 nM | – | 0.0854
E31 [11], 1000 nM | – | 0.0502
E31 [11], 3000 nM | – | 0.0703
E34 [2], 4.1 nM | 1.82 | –
E34 [2], 12.3 nM | 2.56 | –
E34 [2], 37 nM | 5.44 | –
E34 [2], 111.1 nM | 8.06 | –
E34 [2], 333.3 nM | 7.5 | –
E34 [2], 1000 nM | 7.96 | –
E34 [2], 3000 nM | 7.89 | –
E34 [9], 4.1 nM | – | 0.708
E34 [9], 12.3 nM | – | 0.542
E34 [9], 37 nM | – | 0.562
E34 [9], 111.1 nM | – | 0.417
E34 [9], 333.3 nM | – | 0.406
E34 [9], 1000 nM | – | 0.452
E34 [9], 3000 nM | – | 0.331
E57 [5], 4.1 nM | 4.23 | –
E57 [5], 12.3 nM | 7.26 | –
E57 [5], 37 nM | 6.17 | –
E57 [5], 111.1 nM | 4.83 | –
E57 [5], 333.3 nM | 6.2 | –
E57 [5], 1000 nM | 6.94 | –
E57 [5], 3000 nM | 6.28 | –
E57 [12], 4.1 nM | – | 0.572
E57 [12], 12.3 nM | – | 0.303
E57 [12], 37 nM | – | 0.2
E57 [12], 111.1 nM | – | 0.176
E57 [12], 333.3 nM | – | 0.166
E57 [12], 1000 nM | – | 0.136
E57 [12], 3000 nM | – | 0.149
FT3469 [6], 4.1 nM | 2.28 | –
FT3469 [6], 12.3 nM | 3.48 | –
FT3469 [6], 37 nM | 7.75 | –
FT3469 [6], 111.1 nM | 7.91 | –
FT3469 [6], 333.3 nM | 9.29 | –
FT3469 [6], 1000 nM | 9.03 | –
FT3469 [6], 3000 nM | 10.3 | –
FT3469 [13], 4.1 nM | – | 0.772
FT3469 [13], 12.3 nM | – | 0.654
FT3469 [13], 37 nM | – | 0.297
FT3469 [13], 111.1 nM | – | 0.244
FT3469 [13], 333.3 nM | – | 0.227
FT3469 [13], 1000 nM | – | 0.262
FT3469 [13], 3000 nM | – | 0.28
